Laboratory results as given in ChEMBL document CHEMBL1201862, “PubChem BioAssay data set” (2004).
Activity calls are given as the source filed them.

Assays:
[1] = alpha-synuclein stem-loop luciferase translation blockers – H4 neuroglioma cells, luminescence, confirmation (AID 1988); format: functional, cell-based
[2] = molecular target: T1, Short transient receptor potential channel 4 (Mus musculus, UniProt Q9QUQ5); assay: block of DAMGO-driven TRPC4 calcium entry – cell-based, HEK293 TRPC4/mu-opioid, Fluo-4 calcium, dose response (AID 434942); format: functional;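 note: potency of inhibitors blocking the TRPC4 calcium response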
T1 sequence (Q9QUQ5 whole entry): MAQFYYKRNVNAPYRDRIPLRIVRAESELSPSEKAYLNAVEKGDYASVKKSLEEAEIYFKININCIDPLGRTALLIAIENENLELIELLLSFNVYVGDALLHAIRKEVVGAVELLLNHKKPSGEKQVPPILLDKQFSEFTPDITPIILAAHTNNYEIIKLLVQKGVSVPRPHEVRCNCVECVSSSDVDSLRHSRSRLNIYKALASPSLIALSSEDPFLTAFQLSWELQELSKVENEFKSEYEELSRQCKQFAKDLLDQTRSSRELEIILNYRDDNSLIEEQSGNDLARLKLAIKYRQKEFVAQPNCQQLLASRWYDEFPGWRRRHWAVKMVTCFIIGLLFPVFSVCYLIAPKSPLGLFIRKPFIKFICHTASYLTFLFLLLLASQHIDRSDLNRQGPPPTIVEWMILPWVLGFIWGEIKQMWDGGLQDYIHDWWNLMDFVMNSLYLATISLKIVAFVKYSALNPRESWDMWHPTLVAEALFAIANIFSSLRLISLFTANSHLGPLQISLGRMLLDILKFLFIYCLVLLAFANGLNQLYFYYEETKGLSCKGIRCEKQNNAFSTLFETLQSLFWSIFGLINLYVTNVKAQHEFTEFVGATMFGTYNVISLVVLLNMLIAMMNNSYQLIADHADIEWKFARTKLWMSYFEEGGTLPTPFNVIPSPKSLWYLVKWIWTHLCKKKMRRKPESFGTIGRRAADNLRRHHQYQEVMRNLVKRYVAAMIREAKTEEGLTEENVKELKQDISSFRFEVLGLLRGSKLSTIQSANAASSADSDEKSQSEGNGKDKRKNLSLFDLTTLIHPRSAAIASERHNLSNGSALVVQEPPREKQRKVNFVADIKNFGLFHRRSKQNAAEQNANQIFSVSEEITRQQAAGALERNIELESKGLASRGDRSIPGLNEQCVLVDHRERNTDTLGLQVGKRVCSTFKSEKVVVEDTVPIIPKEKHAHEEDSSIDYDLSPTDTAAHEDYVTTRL

[3] = Luminescence Cell-Based Dose Response HTS to Identify Inhibitors of 5'UTR Stem-Loop Driven Prion Protein mRNA Translation in H4 Neuroglioblastoma Cells. [Related pubchem assays: 1827 (Project Summary), 1813 (Primary HTS)]; format: functional
[4] = NIH3T3 cell viability loss – ATP luminescence, mouse fibroblasts, counter-screen, dose response (AID 2010); format: functional, cell-based;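 note: cells exposed to compound for about 90 hours before reading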
[5] = loss of viability in HepG2 cells – cell-based, CellTiter-Glo, cherry-picked, cytotoxicity control for Shn3 inhibitor project, dose response (AID 624134); format: functional
[6] = non-specific 3'UTR reporter inhibition in Clone20-Shn3RL – cell-based, Renilla luciferase, cherry-picked, counter-screen for Shn3 inhibitor project, dose response (AID 624133); format: functional
[7] = Trypanosoma cruzi growth suppression in host cells – NIH3T3 host cells, beta-gal luminescence, confirmation (AID 2044); format: functional, cell-based;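 note: intracellular parasites grown in NIH/3T3 mouse fibroblasts as host cells; luminescent beta-galactosidase reporter signal from transgenic T. cruzi replicating inside host cells; inhibitors lower the luminescence signal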
[8] = reduction of Shn3 3'UTR-driven luciferase in osteoblasts – cell-based, Clone20 osteoblasts, firefly luciferase, cherry-picked, dose response (AID 624132); format: functional;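 note: firefly luciferase luminescence from reporter carrying the Shn3 3'UTR in osteoblasts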
[9] = luciferase reporter signal suppression in cells – H4 neuroglioma cells, luminescence, dose response (AID 1990); format: functional, cell-based
Large T antigen = Large T antigen (Simian virus 40, UniProt P03070); format: functional, Betapolyomavirus macacae;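 note: Confirmatory-stage PubChem screen for compounds that inhibit SV40 T antigen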
[10] = THP-1 cell cytotoxicity, dose response, cytotoxicity control for non-replicating M. tuberculosis project (AID 489025); format: functional
[11] = microbe, parasite or virus in culture; format: functional; conditions: Mycobacterium tuberculosis
cells = format: functional
[12] = A cytotoxicity screen of small molecule inhibitors of the PhoP region in Salmonella typhi identified in the primary screen. [Related pubchem assays: 1850, 1864, 1985 ]; format: functional
H9c2 = assay: cells; format: functional, cell-based; conditions: Rattus norvegicus, H9c2, Myocardium;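 note: confirmatory concentration-response retest of ultra-high-throughput screening hits for modulation of myocardial damage; cell death induced by hydrogen peroxide oxidative stress; compound pretreatment for 60 min then peroxide exposure for 2 h; potency is for protecting the cells against peroxide damage rather than for killing them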
[13] = P. falciparum Dd2 growth inhibitors, dose response, SYBR Green, cherry-picked samples (AID 1159567); format: functional, cell-based
[14] = blockade of melanocortin 4 receptor signaling – cell-based, plate reader, cherry pick, counter-screen for LGR2 antagonist project, dose response (AID 743444); format: functional;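 note: transfected HEK 293 cells stimulated with alpha-MSH peptide; potency of inhibitors of the alpha-MSH evoked signal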
[15] = blockers of bursicon-stimulated LGR2 cAMP reporter – cell-based, HEK293, CRE-luciferase reporter, cherry pick, set 2, dose response (AID 743343); format: functional;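 note: transfected cells were stimulated with diluted bursicon conditioned medium after compound addition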
Caspase-6 = molecular target: T2, Caspase-6 (Homo sapiens, UniProt P55212); assay: inhibition of CASP6 peptide cleavage – biochemical, VEID-R110 fluorescence, cherry-pick, dose response (AID 720632)
T2 sequence (P55212 whole entry): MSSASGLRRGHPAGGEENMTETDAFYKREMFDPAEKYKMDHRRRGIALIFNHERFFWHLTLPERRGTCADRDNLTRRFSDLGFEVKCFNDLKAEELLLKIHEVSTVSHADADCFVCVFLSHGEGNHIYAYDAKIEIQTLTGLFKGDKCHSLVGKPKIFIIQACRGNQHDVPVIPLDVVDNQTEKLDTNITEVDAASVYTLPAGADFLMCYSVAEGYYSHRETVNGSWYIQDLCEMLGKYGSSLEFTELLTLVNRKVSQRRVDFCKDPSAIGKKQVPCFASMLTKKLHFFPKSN

Large T antigen, sequence (P03070 whole entry): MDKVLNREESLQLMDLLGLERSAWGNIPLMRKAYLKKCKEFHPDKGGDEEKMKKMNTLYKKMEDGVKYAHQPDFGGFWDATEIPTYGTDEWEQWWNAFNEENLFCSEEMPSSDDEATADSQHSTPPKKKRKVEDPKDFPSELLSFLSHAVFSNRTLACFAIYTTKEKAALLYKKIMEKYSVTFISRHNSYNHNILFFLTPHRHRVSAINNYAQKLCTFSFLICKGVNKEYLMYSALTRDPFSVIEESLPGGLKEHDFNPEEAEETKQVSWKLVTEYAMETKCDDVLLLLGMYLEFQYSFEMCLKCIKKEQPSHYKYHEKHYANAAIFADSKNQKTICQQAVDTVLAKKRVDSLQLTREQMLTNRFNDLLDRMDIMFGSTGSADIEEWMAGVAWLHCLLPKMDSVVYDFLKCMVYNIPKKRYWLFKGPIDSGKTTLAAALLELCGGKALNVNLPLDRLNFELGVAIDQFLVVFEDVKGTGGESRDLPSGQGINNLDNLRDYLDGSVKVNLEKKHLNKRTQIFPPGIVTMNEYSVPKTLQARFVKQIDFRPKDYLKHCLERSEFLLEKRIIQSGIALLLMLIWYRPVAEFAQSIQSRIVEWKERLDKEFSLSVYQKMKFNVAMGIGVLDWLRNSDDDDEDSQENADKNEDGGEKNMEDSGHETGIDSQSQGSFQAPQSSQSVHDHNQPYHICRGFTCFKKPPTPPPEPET

CCOc1cc(CNCCCN2CCOCC2)cc(Br)c1OCc1ccccc1Cl
EC50 [1]: > 120 µM (not active)
EC50 [2]: 4.22 µM (active)
EC50 [3]: > 120 µM (not active)
EC50 [4]: 12 µM (active)
AC50 [5]: 11 µM (active)
AC50 [6]: 19.3 µM (active)
EC50 [7]: 0.539 µM (active)
AC50 [8]: 9.31 µM (active)
EC50 [9]: > 120 µM (not active)

CCN(CC)c1ccc(NC(=O)COC(=O)COc2ccccc2[N+](=O)[O-])cc1
IC50 (Large T antigen): 10.4 µM (active)

Nc1nc2ccccc2n1CCOc1ccccc1Cl
CC50 [10]: 20.6 µM (active)
CC50 [11]: > 40 µM (active)
IC50 (cells): 23.8 µM (active)

COc1cc(C(=O)N/N=C/c2ccc(OC(=O)c3cccc(C)c3)c(OC)c2)ccc1O
EC50 [12]: > 50 µM (active)
IC50 (H9c2): > 79 µM (inactive)

COc1ccccc1NC(=O)N1CCCCN2[C@H](C1)[C@H](c1ccc(C#CC3CC3)cc1)[C@@H]2CO
AC50 [13]: 5.95 µM (active)

c1nc(CCO[C@H]2CCCCO2)cc2cc3c(cc12)OCO3
AC50 [14]: 3.45 µM (active)
AC50 [15]: 2.56 µM (active)

O=Cc1ccc(N2CCCCCC2)cc1
EC50 [12]: > 50 µM (active)

CCOC(=O)c1nc2cc3n(c(CC(C)C)c-2c1C)CC(C)=C3C
EC50 [12]: > 50 µM (active)

CCC(=O)N1CCCCN2[C@H](C1)[C@H](c1ccc(-c3cccnc3)cc1)[C@@H]2CO
AC50 [13]: 21.9 µM (active)

CC(Oc1ccc(F)cc1)C(=O)Nc1cccc(-c2nn[nH]n2)c1 (stereo not drawn)
AC50 (Caspase-6): 32.6 µM (active)

Nc1[nH]cnc2nc(SCC(=O)Nc3cccc(C(F)(F)F)c3)nc1-2
EC50 [12]: > 50 µM (active)
